The values that follow come from ChEMBL document CHEMBL3612015, “Coumarins as anticancer agents: a review on synthetic strategies, mechanism of action and SAR studies” (Eur J Med Chem, 2015).

As a reminder, the IC50 is the concentration needed to halve the response being measured. As a reminder, the GI50 is the concentration that inhibits growth by half.

A value given as a limit tells only on which side of the number the result lay.

The test system of series [1] is MCF7. The series is described as follows: Cytotoxicity against human MCF7 cells assessed as cell proliferation after 72 hrs by CellTiter 96 aqueous one solution cell proliferation assay relative to control. The class given is functional.
The next series relates to MDA-MB-468. The series can be described thus: Cytotoxicity against human MDA-MB-468 cells assessed as cell proliferation after 72 hrs by CellTiter 96 aqueous one solution cell proliferation assay relative to control. Type of series: functional.
Another series has as its system SK-OV-3. The series can be described thus: Cytotoxicity against human SKOV3 cells assessed as cell proliferation after 72 hrs by CellTiter 96 aqueous one solution cell proliferation assay relative to control. Type of series: functional.
A short description of series [2]: Cytotoxicity against rat CRL1439 cells after 48 hrs by crystal violet dye-binding assay. Type of series: cell-based. The note with it: read-out: LD50.
Another series deals with A549. The series is described as follows: Cytotoxicity against human A549 cells after 48 hrs by crystal violet dye-binding assay. Type of series: functional. Particulars: A549, 48 h, read-out: LD50 (the source's name).
Series [3] can be described thus: Cytotoxicity against rat CRL1548 cells after 48 hrs by crystal violet dye-binding assay. Particulars: CRL1548, 48 h, read-out: LD50 (the source's name). Type of series: functional.
Series [4] has as its system MCF7. The series is described as follows: Cytotoxicity against human MCF7 cells after 72 hrs by MTT assay. The note with it: MCF7, 72 h. Type of series: functional, cell-based. (In general: Tetrazolium dyes change colour on reduction, which living cells bring about.)
For a further series, the system named is KETR3. The series can be described thus: Cytotoxicity against human Ketr3 cells after 72 hrs by MTT assay. Particulars: KETR3, 72 h. The class given is functional, cell-based.
Series [5] concerns HeLa. The series can be described thus: Cytotoxicity against human HeLa cells after 72 hrs by MTT assay. Type of series: functional, cell-based.
A further series has as its system A2780. The series is described as follows: Cytotoxicity against human A2780 cells after 72 hrs by MTT assay. Type of series: functional, cell-based. The note with it: A2780, 72 h.
Series [6] concerns MCF7. The series can be described thus: Cytotoxicity against human MCF7 cells after 48 hrs by MTT assay. The class given is functional, cell-based. The note with it: MCF7, 48 h.
Series [7] relates to MCF7. The series can be described thus: Cytotoxicity against human MCF7 cells after 48 hrs by trypan blue assay. The class given is functional, cell-based. The note with it: MCF7, 48 h.
In series [8] the test system is MCF7. The series is described as follows: Cytotoxicity against human MCF7 cells assessed as growth inhibition at 50 uM after 48 hrs by MTT assay relative to control. The class given is functional. Particulars: MCF7, 48 h, read-out: GI.
Series [9] deals with MCF7. The series is described as follows: Cytotoxicity against human MCF7 cells assessed as growth inhibition at 10 uM after 48 hrs by MTT assay relative to control. The class given is functional. The note with it: MCF7, 48 h, read-out: GI.
In series [10] the test system is MCF7. The series is described as follows: Cytotoxicity against human MCF7 cells assessed as growth inhibition at 200 uM after 48 hrs by MTT assay relative to control. The class given is functional. The note with it: MCF7, 48 h, read-out: GI.
In series [11] the test system is MCF7. The series is described as follows: Cytotoxicity against human MCF7 cells assessed as growth inhibition at 100 uM after 48 hrs by MTT assay relative to control. Type of series: functional. The note with it: MCF7, 48 h, read-out: GI.
In series [12] the target is Proto-oncogene tyrosine-protein kinase Src (Homo sapiens, UniProt P12931). The series is described as follows: Inhibition of His6-tagged Src kinase domain (unknown origin) using AEEEIYGEFEAKKKK as substrate preincubated for 10 mins followed by substrate/ATP addition measured after 30 mins by fluorescence assay.
Chain of Proto-oncogene tyrosine-protein kinase Src (P12931 2-536 limits assumed): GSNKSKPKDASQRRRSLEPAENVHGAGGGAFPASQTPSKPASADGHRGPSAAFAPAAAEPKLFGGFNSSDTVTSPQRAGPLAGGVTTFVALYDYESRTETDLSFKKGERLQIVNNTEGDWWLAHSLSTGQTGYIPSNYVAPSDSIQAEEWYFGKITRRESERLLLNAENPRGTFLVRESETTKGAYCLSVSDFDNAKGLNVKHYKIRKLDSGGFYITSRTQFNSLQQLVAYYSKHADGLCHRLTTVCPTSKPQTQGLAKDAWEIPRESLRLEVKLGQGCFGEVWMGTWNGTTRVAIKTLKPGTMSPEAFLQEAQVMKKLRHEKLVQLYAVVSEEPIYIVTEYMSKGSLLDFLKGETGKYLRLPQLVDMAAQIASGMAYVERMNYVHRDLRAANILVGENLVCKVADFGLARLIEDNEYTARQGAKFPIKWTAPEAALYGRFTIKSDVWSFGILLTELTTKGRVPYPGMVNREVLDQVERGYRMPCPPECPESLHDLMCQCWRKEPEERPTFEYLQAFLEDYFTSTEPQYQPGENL
The subject of the next series is Vero. The series can be described thus: Cytotoxicity against African green monkey Vero cells. The class given is cell-based. Particulars: Chlorocebus sabaeus.
The nature of series [13]: Cytotoxicity against human Hep2 cells. The class given is functional, cell-based. The note with it: HEp-2.
Series [14] deals with U-937. The series is described as follows: Cytotoxicity against human U937 cells assessed as decrease in cell viability after 48 hrs. The class given is functional. The note with it: U-937, 48 h.
The test system of series [15] is U-937. The series can be described thus: Antiproliferative activity against human U937 cells after 3 days. The note with it: U-937, 72 h. The class given is functional, cell-based.
Series [16] is described as follows: Cytotoxicity against human NCI60 cells assessed as cell growth. Type of series: functional.
For series [17], the system named is Paracentrotus lividus. The series is described as follows: Antimitotic activity in sea urchin embryo assessed as cleavage alterations. The class given is functional.
The subject of series [18] is Paracentrotus lividus. The series can be described thus: Antimitotic activity in sea urchin embryo assessed as embryo spinning. Type of series: functional.
Series [19] concerns Paracentrotus lividus. The series is described as follows: Antimitotic activity in sea urchin embryo assessed as cleavage arrest. The class given is functional.
Series [20] has as its system HeLa. The series is described as follows: Cytotoxicity against human HeLa cells assessed as growth inhibition after 72 hrs by MTT assay. Type of series: functional, cell-based.
Another series deals with HepG2. The series can be described thus: Cytotoxicity against human HepG2 cells assessed as growth inhibition after 72 hrs by MTT assay. The class given is functional, cell-based. Particulars: HepG2, 72 h.
A further series deals with SW-620. The series can be described thus: Cytotoxicity against human SW620 cells assessed as growth inhibition after 72 hrs by MTT assay. The class given is functional, cell-based. Particulars: SW-620, 72 h.
Another series has as its system CAKI-1. The series is described as follows: Cytotoxicity against human CAKI-1 cells assessed as cell growth after 48 hrs by SRB assay relative to control. The class given is functional. (In general: The SRB assay estimates cell density from bound dye.)
Another series relates to MDA-MB-231. The series is described as follows: Cytotoxicity against human MDA-MB-231 cells assessed as cell growth after 48 hrs by SRB assay relative to control. Type of series: functional.
The test system of a further series is UO-31. The series is described as follows: Cytotoxicity against human UO31 cells assessed as cell growth after 48 hrs by SRB assay relative to control. The class given is functional.
For another series, the system named is NCI-H522. The series is described as follows: Cytotoxicity against human NCI-H522 cells assessed as cell growth after 48 hrs by SRB assay relative to control. Type of series: functional.
The nature of series [21]: Cytotoxicity against human NCI60 cells assessed as cell growth after 48 hrs by SRB assay. The class given is functional.

`CCc1c(C)c2cc3c(c(O)c2oc1=O)OC(C)(C)CC3`: the values for the Activity in the series with MCF7 [1], in the series with MDA-MB-468 and in the series on SK-OV-3 were 45%, 85% and 30%, respectively.
Regarding `CC(=O)Oc1ccc(-c2c(-c3ccccc3)c3ccccc3oc2=O)cc1`, the CC50 at 48 h in series [2] is above 100 µM. Besides, the CC50 was 89.3 µM in the series with A549 and above 100 µM in series [3].
As to `CO[C@@H]1[C@@H](N)[C@@H](O)[C@H](Oc2ccc3cc(NC(=O)c4ccccc4)c(=O)oc3c2C)OC1(C)C`, the IC50 with MCF7 [4] was determined as 8.12 µM; in the series with KETR3 it was 2.14 µM; in the series on HeLa [5] it was 2.89 µM; in the series with A2780, 7.52 µM.
With `Cc1cc(C(=O)c2ccccc2Br)ccc1OCC(=O)NNC(=O)c1cc2ccccc2oc1=O`, the IC50 in the series with MCF7 [6] is 7.6 µM; with MCF7 [7], 7.7 µM.
Consider `CO[C@@H]1[C@@H](N)[C@@H](O)[C@H](Oc2ccc3cc(NC(=O)c4ccccc4)c(=O)oc3c2Cl)OC1(C)C`, for which the half-inhibitory concentration (IC50) was determined as 13.8 µM in the series with MCF7 [4], 14.6 µM in the series with KETR3, 5.35 µM with HeLa [5] and 2.83 µM in the series with A2780.
`C=CCOc1cc2oc(=O)cc(-c3nc4ccccc4s3)c2cc1OCC=C`: in the series with MCF7 [8], the inhibition of growth at 50 µM was 25.3%. In the series with MCF7 [9], the inhibition of growth at 10 µM is 18.5%. Also, the inhibition of growth at 200 µM in the series with MCF7 [10] stood at 70.3%. In addition, in the series with MCF7 [11], the inhibition of growth at 100 µM came to 43.8%.
`Nc1ccc2c(C(F)(F)F)cc(=O)oc2c1` came in with an IC50 in series [12] of 30.9 µM.
In the case of `Cc1ccc(C(=O)c2cc(F)c(OCC(=O)NNC(=O)c3cc4ccccc4oc3=O)c(Cl)c2)cc1`, the IC50 with MCF7 [6] was determined as 9.3 µM; in the series with MCF7 [7] it was 9.4 µM.
For the compound `Cc1cc(=O)oc2ccc(OCNc3ccccc3O)cc12`, the IC50 in the series with Vero came to 22.9 µM; in [13] it was 4.2 µM.
For the compound `CCCCCCc1c(C)c2ccc(N(CC)CCCC(=O)O)cc2oc1=O`, the IC50 in series [12] worked out at 36.5 µM.
As to `O=c1ccc2ccc(O)c(O)c2o1` [DAPHNETIN], the CC50 in the series with U-937 [14] was 120 µM. Besides, the IC50 with U-937 [15] stood at 83.2 µM.
`Cc1cc(=O)oc2cc(O)c(O)cc12` [4-METHYLESCULETIN]: in the series on U-937 [14], the CC50 worked out at 76 µM.
In turn, `CCCCCCCCCCc1c(C)c2ccc(N(CC)CCCC(=O)O)cc2oc1=O` registered an IC50 in series [12] of 21.6 µM.
In [12], `CCCCCCCCCCc1c(C)c2ccc(N)cc2oc1=O` yielded an IC50 of 73.5 µM.
Take `COc1ccc(-c2cc3cc(OC)c(OC)c(OC)c3oc2=O)cc1`: the GI50 in series [16] is 3.98 µM. Further, the results for the EC in the series with Paracentrotus lividus [17], in the series on Paracentrotus lividus [18] and with Paracentrotus lividus [19] were 0.2 µM, above 5 µM and 4 µM, respectively.
`Cc1cc(=O)oc2ccc(OCNc3ccc(F)cc3)cc12`: the IC50 was 30.7 µM with Vero and 3.62 µM in [13].
On to `Nc1nc(Cl)c2cnn(Cc3cc(=O)oc4cc(O)ccc34)c2n1`, for which the concentration for half-maximal inhibition (IC50) with HeLa [20] is 34 µM; with HepG2, 25.6 µM; with SW-620, 35.4 µM.
Regarding `CCCCCCCCCCc1c(C)c2cc3c(c(O)c2oc1=O)OC(C)(C)CC3`, the figures for the Activity with MCF7 [1], in the series on MDA-MB-468 and with SK-OV-3 were 57%, 36% and 35%, respectively.
`O=c1oc2ccccc2cc1C1=NN(c2ccccc2)C(c2ccc(O)cc2)C1` (stereo unspecified): the Activity in the series with CAKI-1 is listed as -65.18%; with MDA-MB-231, -67.37%; with UO-31, -63.77%; in the series with NCI-H522, -67.37%; in [21], 77.59%.
Consider `CCN(CC)c1ccc2c(C)c(-c3ccc(OC(C)=O)cc3)c(=O)oc2c1`, for which the CC50 at 48 h in series [2] is 49.1 µM. Further, the CC50 was determined as 48.1 µM in the series with A549 and 45.1 µM in series [3].
For the compound `COc1ccccc1NCOc1ccc2oc(=O)cc(C)c2c1`, the IC50 in the series with Vero turned out to be 21.3 µM; in series [13] it was 5.43 µM.
On to `Cc1cc(C(=O)c2ccc(Cl)cc2Cl)ccc1OCC(=O)NNC(=O)c1cc2ccccc2oc1=O`, for which the values for the half-maximal inhibitory concentration (IC50) in the series with MCF7 [6] and in the series with MCF7 [7] were 10.2 µM and 10.4 µM, respectively.
For `COc1ccc2c(Cn3cnc(C(N)=O)n3)cc(=O)oc2c1`, the IC50 in the series on HeLa [20] turned out to be 35.5 µM.
